The test system of this test is CD2F1 mice, P1798 lymphosarcoma sc, tumor weight T/C. Kind of test: NCI In Vivo Anticancer Drug Screen. Data for tumor model P1798 Lymphosarcoma (subcutaneous) in CD2F1 (CDF1) mice. The conditions noted are these: endpoint: mean tumor weight, higher = larger tumour. How it is done:
The antitumor activity of compounds was measured in mice bearing transplantable tumors. Survival or tumor size were measured and the results are expressed as the measurement made in the treated group (T) divided by the measurement made in the vehicle treated control group (C). The tumor model used in this assay is P1798 Lymphosarcoma (subcutaneous) in CD2F1 (CDF1) mice

Where [1] appears, read: dose: 15.0 mg/kg/injection, schedule: Q01DX010 (ip), vehicle: saline.
Setting [2] is: dose: 30.0 mg/kg/injection, schedule: Q01DX010 (ip), vehicle: saline.
The mark [3] stands for this setting: dose: 12.5 mg/kg/injection, schedule: Q01DX010 (sc), vehicle: steriod suspending solution.
The mark [4] stands for this setting: dose: 25.0 mg/kg/injection, schedule: Q01DX010 (sc), vehicle: steriod suspending solution.
Where [5] appears, read: dose: 50.0 mg/kg/injection, schedule: Q01DX010 (sc), vehicle: steriod suspending solution.
The mark [6] stands for this setting: dose: 0.63 mg/kg/injection, schedule: Q01DX010 (ip), vehicle: saline.
Setting [7] is: dose: 1.25 mg/kg/injection, schedule: Q01DX010 (ip), vehicle: saline.
Setting [8] is: dose: 2.5 mg/kg/injection, schedule: Q01DX010 (ip), vehicle: saline.
The mark [9] stands for this setting: dose: 12.5 mg/kg/injection, schedule: Q01DX005 (sc), vehicle: steriod suspending solution.
The mark [10] stands for this setting: dose: 25.0 mg/kg/injection, schedule: Q01DX005 (sc), vehicle: steriod suspending solution.
Setting [11] is: dose: 25.0 mg/kg/injection, schedule: Q02DX010 (sc), vehicle: steriod suspending solution.
The mark [12] stands for this setting: dose: 50.0 mg/kg/injection, schedule: Q01DX005 (sc), vehicle: steriod suspending solution.
The mark [13] stands for this setting: dose: 50.0 mg/kg/injection, schedule: Q02DX010 (sc), vehicle: steriod suspending solution.
Setting [14] is: dose: 100.0 mg/kg/injection, schedule: Q01DX005 (sc), vehicle: steriod suspending solution.
Where [15] appears, read: dose: 100.0 mg/kg/injection, schedule: Q01DX010 (sc), vehicle: steriod suspending solution.
Setting [16] is: dose: 200.0 mg/kg/injection, schedule: Q01DX010 (sc), vehicle: steriod suspending solution.
Setting [17] is: dose: 400.0 mg/kg/injection, schedule: Q01DX010 (sc), vehicle: steriod suspending solution.

From PubChem BioAssay AID268 (DTP/NCI, 2004) come the findings set out here.

“And” between values parts separate entries of the source, which are not always exact repeats. Equal entries are not always repeated.

Turning to `CCOC(N)=O`, the T/C (dose: 125.0 mg/kg/injection, schedule: Q01DX010 (ip), vehicle: saline) is 95 % of control; the T/C (dose: 250.0 mg/kg/injection, schedule: Q01DX010 (ip), vehicle: saline) is 64 % of control; the T/C (dose: 500.0 mg/kg/injection, schedule: Q01DX010 (ip), vehicle: saline) was 23 % of control.

`Clc1ncnc2nc[nH]c12`: the T/C reads like this: (dose: 7.5 mg/kg/injection, schedule: Q01DX010 (ip), vehicle: saline) 91 % of control; under setting [1], 84 % of control and 85 % of control; under setting [2], 102 % of control; (dose: 120.0 mg/kg/injection, schedule: Q01DX010 (ip), vehicle: saline) 91 % of control.

On to `C[C@]12CC[C@@H]3c4ccc(O)cc4CC[C@H]3[C@@H]1CC(=O)[C@@H]2O`, for which the T/C is, setting by setting: under setting [3], 94 % of control and 89 % of control; under setting [4], 92 % of control and 96 % of control; under setting [5], 78 % of control and 86 % of control.

As for `CC(=O)OCC(=O)[C@@]1(O)CC[C@H]2[C@@H]3C[C@H](C)C4=CC(=O)C=C[C@]4(C)[C@H]3[C@@H](O)C[C@@]21C`, under setting [5], the T/C is 5 % of control.

With `NC(N)=NCCCC(N)C(=O)NCCCCCCCCCCNC(=O)C(N)CCCN=C(N)N` (configuration not stated), the T/C by setting is: (dose: 6.25 mg/kg/injection, schedule: Q01DX010 (ip), vehicle: saline) 103 % of control; (dose: 12.5 mg/kg/injection, schedule: Q01DX010 (ip), vehicle: saline) 110 % of control; (dose: 25.0 mg/kg/injection, schedule: Q01DX010 (ip), vehicle: saline) 78 % of control; (dose: 50.0 mg/kg/injection, schedule: Q01DX010 (ip), vehicle: saline) 99 % of control.

As to `CC(/C=N/N=C(N)N)=N\N=C(N)N`, the T/C is 78 % of control under setting [1]; 87 % of control under setting [2]; 50 % of control (dose: 60.0 mg/kg/injection, schedule: Q01DX010 (ip), vehicle: saline).

In the case of `Nc1nc(=S)c2[nH]cnc2[nH]1`, the T/C runs as follows: under setting [6], 74 % of control; under setting [7], 51 % of control and 72 % of control; under setting [8], 44 % of control.

`CC(C)(O)/C=C/C(=O)[C@](C)(O)[C@H]1[C@H](O)C[C@@]2(C)[C@@H]3CC=C4[C@@H](C[C@H](O)C(=O)C4(C)C)[C@]3(C)C(=O)C[C@]12C`: the T/C (dose: 0.2 mg/kg/injection, schedule: Q01DX009 (ip), vehicle: saline) was 91 % of control; the T/C (dose: 0.4 mg/kg/injection, schedule: Q01DX009 (ip), vehicle: saline) was 81 % of control; the T/C (dose: 0.8 mg/kg/injection, schedule: Q01DX009 (ip), vehicle: saline) is 95 % of control.

For the molecule `Nc1nc(N)c2nc(CNc3ccc(C(=O)NC(CCC(=O)O)C(=O)O)cc3)cnc2n1` (configuration not stated), the T/C by setting is: (dose: 50.0 micrograms/kg/injection, schedule: Q01DX010 (ip), vehicle: other) 110 % of control; (dose: 100.0 micrograms/kg/injection, schedule: Q01DX010 (ip), vehicle: other) 100 % of control; (dose: 200.0 micrograms/kg/injection, schedule: Q01DX010 (ip), vehicle: other) 79 % of control.

Consider `CC(=O)OC1C=CC(=O)OC1C1OC1C` (configuration not stated), for which the T/C was 53 % of control (dose: 4.0 mg/kg/injection, schedule: Q01DX011 (ip), vehicle: saline); 72 % of control (dose: 6.0 mg/kg/injection, schedule: Q01DX011 (ip), vehicle: saline); 62 % of control (dose: 9.0 mg/kg/injection, schedule: Q01DX011 (ip), vehicle: saline); 56 % of control (dose: 13.0 mg/kg/injection, schedule: Q01DX011 (ip), vehicle: saline).

As for `CC(=O)O[C@]1(C(C)=O)CC[C@H]2[C@@H]3C[C@H](C)C4=CC(=O)C=C[C@]4(C)[C@@]3(F)[C@@H](O)C[C@@]21C`, the T/C is, setting by setting: under setting [9], 32 % of control; under setting [3], 37 % of control and 39 % of control; under setting [10], 13 % of control; under setting [4], 15 % of control and 16 % of control and 36 % of control; under setting [11], 105 % of control; under setting [12], 1 % of control. Also, the T/C is 101 % of control under setting [13]; 3 % of control under setting [14]; 105 % of control (dose: 100.0 mg/kg/injection, schedule: Q02DX010 (sc), vehicle: steriod suspending solution).

As for `O=C(Nc1ccc(NC2=NCCN2)cc1)c1ccc(C(=O)Nc2ccc(NC3=NCCN3)cc2)cc1`, the T/C reads like this: (dose: 2.0 mg/kg/injection, schedule: Q01DX010 (ip), vehicle: saline) 78 % of control; (dose: 4.0 mg/kg/injection, schedule: Q01DX010 (ip), vehicle: saline) 81 % of control; (dose: 8.0 mg/kg/injection, schedule: Q01DX010 (ip), vehicle: saline) 36 % of control.

On to `CN(C)c1nc(N(C)C)nc(N(C)C)n1`, for which the T/C reads like this: (dose: 18.8 mg/kg/injection, schedule: Q01DX010 (ip), vehicle: saline) 104 % of control and 87 % of control; (dose: 75.0 mg/kg/injection, schedule: Q01DX010 (ip), vehicle: saline) 68 % of control and 82 % of control; (dose: 150.0 mg/kg/injection, schedule: Q01DX010 (ip), vehicle: saline) 26 % of control.

With `C[C@]12CC[C@@H]3c4ccccc4CC[C@H]3[C@@H]1CC[C@@H]2O`, the T/C by setting is: under setting [15], 94 % of control; under setting [16], 74 % of control; under setting [17], 33 % of control; (dose: 800.0 mg/kg/injection, schedule: Q01DX010 (sc), vehicle: steriod suspending solution) 7 % of control.

Take `COc1cc(C[C@H]2c3cc(OC)c(OC)cc3CCN2C)c(Oc2cc3c(cc2OC)-c2c(OC)c(OC)cc4c2[C@H](C3)N(C)CC4)cc1OC`: the T/C (dose: 50.0 mg/kg/injection, schedule: Q01DX011 (ip), vehicle: carboxymethylcellulose (CMC)) was 13 % of control.

Regarding `CC(=O)[C@H]1CC[C@H]2[C@@H]3C[C@H](C)C4=CC(=O)CC[C@]4(C)[C@@]3(F)[C@@H](O)C[C@]12C`, the T/C reads like this: under setting [5], 11 % of control; under setting [15], 4 % of control; under setting [16], 2 % of control; under setting [17], 2 % of control.

In the case of `C[C@]12CCC(=O)C=C1CC[C@@H]1[C@@H]2[C@@H](O)C[C@@]2(C)[C@H]1CC[C@]2(O)C(=O)CO`, the T/C was 51 % of control under setting [9]; 105 % of control (dose: 12.5 mg/kg/injection, schedule: Q02DX010 (sc), vehicle: steriod suspending solution); 15 % of control under setting [10]; 105 % of control under setting [11]; 7 % of control under setting [12]; 110 % of control under setting [13]. Besides, the T/C under setting [14] is 1 % of control.

In the case of `OCC1OC(n2cnc3c(=S)nc[nH]c32)C(O)C1O` (configuration not stated), the T/C is, setting by setting: (dose: 10.0 mg/kg/injection, schedule: Q01DX010 (ip), vehicle: saline) 65 % of control; (dose: 20.0 mg/kg/injection, schedule: Q01DX010 (ip), vehicle: saline) 54 % of control and 57 % of control; (dose: 40.0 mg/kg/injection, schedule: Q01DX010 (ip), vehicle: saline) 57 % of control and 61 % of control; (dose: 80.0 mg/kg/injection, schedule: Q01DX010 (ip), vehicle: saline) 40 % of control and 60 % of control; (dose: 160.0 mg/kg/injection, schedule: Q01DX010 (ip), vehicle: saline) 61 % of control.

Take `CC(=O)OC(C)(C)/C=C/C(=O)[C@](C)(O)[C@H]1[C@H](O)C[C@@]2(C)[C@@H]3CC=C4[C@@H](C[C@H](O)C(=O)C4(C)C)[C@]3(CO)C(=O)C[C@]12C`: the T/C is 108 % of control (dose: 0.16 mg/kg/injection, schedule: Q01DX010 (ip), vehicle: saline); 110 % of control (dose: 0.25 mg/kg/injection, schedule: Q01DX010 (ip), vehicle: saline); 104 % of control (dose: 0.38 mg/kg/injection, schedule: Q01DX010 (ip), vehicle: saline).

Consider `O=C(NCCCC(NC(=O)OCc1ccccc1)C(=O)NCCCNCCCCNCCCNC(=O)C(CCCNC(=O)OCc1ccccc1)NC(=O)OCc1ccccc1)OCc1ccccc1` (configuration not stated), for which the T/C is 156 % of control under setting [6], 91 % of control under setting [7] and 111 % of control under setting [8].

Take `CC/C(=C(/CC)c1ccc(O)cc1)c1ccc(O)cc1`: the T/C (dose: 6.25 mg/kg/injection, schedule: Q01DX010 (sc), vehicle: steriod suspending solution) is 91 % of control and 96 % of control; the T/C under setting [15] was 22 % of control and 45 % of control.

Consider `CN(C)[C@@H]1C(=O)C(C(N)=O)=C(O)[C@@]2(O)C(=O)C3=C(O)c4c(O)cccc4C[C@H]3C[C@@H]12`, for which the T/C is, setting by setting: under setting [1], 124 % of control; under setting [2], 106 % of control.

As a reminder, the T/C is the result in the treated group divided by that in the control group, in per cent.
